Test results taken from patent publication US20140364500A1, “URSOLIC ACID SALTS FOR TREATING DIABETES AND OBESITY” (priority 2012, published 2014).

Columns and labels:
[1] = Merck Index, 11th Edition, page 1556; cited from earlier work
[2] = Solubility determination in water by HPLC assay; format: physicochemical; conditions: filtered, filtrate assayed by HPLC
Method: The average AUC of the three runs was used to determine the concentration.
Agilent 1100 HPLC; Eclipse XDB-C18 50×4.6 mm 1.8 micron column; Gradient—5 min 95% water (0.10% TFA) to 95% acetonitrile (0.07% TFA); 1.5 mL/min; UV Detection @ 210 nm.

detection by HPLC assay in filtrate of water saturated with the substance [2]: not detected
Structure (SMILES): C[C@H]1[C@H](C)CC[C@]2(C(=O)O)CC[C@]3(C)C(=CC[C@@H]4[C@@]5(C)CC[C@H](O)C(C)(C)[C@@H]5CC[C@]43C)[C@H]12 [Ursolic acid]
solubility in water (literature citation) [1]: insoluble in water
